Test results as given in patent US4120810A, “Paint remover with improved safety characteristics” (priority 1976, dated 1978).
Like-named read-outs stand apart in the source and are kept apart here.

Columns and labels:
[1] = Minutes to complete bubbling / softening of finishes (Example 5)
Protocol: A 50 mole percent mixture of diacetone alcohol as the first chemical and Panasol AN-1 as the second chemical was compared against pure diacetone alcohol on a variety of surfaces.
Latex enamel was also tested.

[2] = Paint stripping, xylene and diacetone alcohol mixture (Example 7)
Excerpt: A 50 mole percent mixture of xylene and diacetone alcohol was compared against the pure components on a number of substrates for use as paint strippers. […] On an alkyd sash and trim paint the xylene was ineffective.

[3] = Deglosser test: adhesion of latex enamel to wiped alkyd enamel (Example 6); conditions: after wiping off cooking oil with saturated paper towel, painting and drying
Protocol: The mixture of Example 5 and straight diacetone alcohol were tested as deglossers, wherein an alkyd surface was covered with cooking oil. Then a paper towel saturated with the liquid was used to wipe off both the oil and the surface sheen of the alkyd enamel. This was followed by painting with latex enamel. […] Said commercially available deglossers contained such chemicals as methylene chloride, alcohols, and petroleum distillates.

[4] = cited from earlier work
[5] = Paint removal, N-vinyl 2-pyrrolidone mixtures and pyrrolidone 2 (Example 4); conditions: variety of surfaces, as in Example 1
Protocol: N-vinyl 2-pyrrolidone was substituted for NMP in the mixtures prepared in Example 1. They were tested as a paint remover on a variety of surfaces, also as in Example 1.

[6] = Paint removal, NMP and benzyl alcohol (Example 9); conditions: alone
Excerpt: However, its mixture with NMP had substantially less effectiveness than either pure component.

[7] = 75° F.; cited from earlier work
[8] = Paint removal comparison of NMP/Panasol AN-1 mixtures with the pure components (Example 1)
Protocol: Various mixtures of Panasol AN-1 and NMP were compared against the paint removal efficiency of the pure components. The following surfaces were tested: alkyd enamel, polyurethane varnish, two-part epoxy enamel, polyurethane marine enamel, latex enamel, and a surface with seven layers of aged alkyd enamels.
The straight line drawn at a 45° angle represents the expected effectiveness, based on the state of the art with an averaging of the properties of the pure components (R. S. Downing, ibid.).

With `CC(=O)CC(C)(C)O` [Diacetone Alcohol, diacetone alcohol] the “Minutes to Complete Bubbling” value ([1]; Acrylic enamel) was 32 min, the “Minutes to Complete Bubbling” value ([1]; Alkyd enamel) was 40 min and the time to softening ([1]; Latex enamel (does not bubble)) was 4 min. For the same compound, the “Minutes to Complete Bubbling” value ([1]; Polyurethane varnish) was 36 min, the softening and bubbling ([1]; alkyd and epoxy surfaces) was “would soften alkyd and epoxy surfaces, permitting scraping but would not bubble them in a reasonable time” and the “Minutes to Complete Bubbling” value ([1]; polyurethane enamel) was 17 min. For the same compound, the paint stripping effectiveness ([2]; alkyd sash and trim paint) was “effective but very slow”, the paint stripping effectiveness ([2]; brushing lacquer) was “equally effective” and the “adhesion of the latex enamel to the alkyd enamel” value [3] was “excellent”.

In the case of `CO` [Methanol], the elimination ([4]; Sax, Dangerous Properties of Industrial Materials) is given as “slowness with which it is eliminated”, the “toxicity / health effects in words” value ([4]; background literature) is given as “prolongs the period of cardiovascular stress caused by the methylene chloride” and the “toxicity / health effects in words” value ([4]; background literature, listed as methanol) is given as “Severe exposures may cause dizziness, unconsciousness, sighing respiration, cardiac depression and eventually death”.

With `O=C1CCCN1` [pyrrolidone 2] the paint removal effectiveness [5] was “ineffective as a paint remover”.

For `OCc1ccccc1` [benzyl alcohol], the paint removal ability [6] was “some ability to soften paint and remove it”.

In the case of `CC(C)=O` [Acetone], the “toxicity / health effects in words” value ([4]; background literature) is listed as “low toxicity”.

For `ClCCl` [Methylene chloride], the metabolism ([4]; background literature) is listed as “metabolized to carbon monoxide” and the vapor pressure [7] is listed as 400 mm Hg.

For `c1ccccc1` [benzene], the “toxicity / health effects in words” value ([4]; background literature) is given as “induces severe chronic toxic effects, causing anemia and damaging the bone marrow”.

With xylene the paint stripping effectiveness ([2]; alkyd sash and trim paint) was “ineffective”, the paint stripping effectiveness ([2]; brushing lacquer) was “ineffective” and the paint stripping effectiveness ([2]; latex flat paint) was “very slow acting”.

In the case of `CN1CCCC1=O` [NMP, n-methyl 2 pyrrolidone], the removal time ([8]; epoxy) is reported as “ten”, the paint removal effectiveness ([8]; old lead based paint) is reported as “equally effective” and the paint removal effectiveness ([8]; one surface with a modern coating) is reported as “would not succumb to NMP”. It also gave a removal time ([8]; polyurethane enamel) of 5 min.
